From article PMC12888920, “MMP-9 regulates disulphide isomerase activity of TGM2 to enhance fusion glycoprotein-mediated syncytium formation of respiratory syncytial virus” (Protein & Cell, 2025)

Test system: RSV F/G/SH pseudovirus
Assay: RSV F/G/SH pseudovirus entry assay (luciferase)
Format: cell-based, Respiratory syncytial virus
Conditions: 5 µmol/L, HEp-2, 48 hpi
Description: Figure 2. MMP-9 regulates late-stage RSV infection. (A) Time-of-addition assay design (left). HEp-2 cells were treated with metalloproteinase inhibitors under three regimens: “Full-time” (2 h pretreatment + continuous exposure), “Entry” (viral attachment phase only), or “Post-entry” (≥ 2 hpi). Cells infected with RSV A2 (MOI = 1) were analyzed for cytopathic effect inhibition at 72 hpi versus DMSO controls. mean ± SD, n = 3. (B) No inhibition of RSV F/G/SH pseudovirus entry by doxycycline hyclate or JNJ0966 (5 µmol/L). mean ± SD, n = 3. (C) Temporal sensitivity analysis (left). Viral RNA levels (22 hpi) in HEp-2 cells treated with 5 µmol/L inhibitors at defined intervals: pre-infection (−2–0 h), entry (0–2 h), or post-entry (2–16 h) phases (right). mean ± SD, n = 3. (D) Multicycle replication kinetics. Intracellular RSV RNA (fusion gene copies) in HEp-2 cells treated with 5 µmol/L inhibitors at indicated time points (4–144 hpi). mean ± SD, n = 3. (E) Viral assembly/release inhibition assay. Supernatant viral titers at 22 hpi after post-entry treatment (10/16 hpi) (right). mean ± SD, n = 3. (F) Dose-dependent suppression of RSV progeny (MOI = 0.2/1) by inhibitors (72 hpi), quantified by FFA. mean ± SD, n = 3. […] The results are representatively shown with three random experiments. The error bars indicate the mean ± SD of three technical replicates (n = 3). […]

Row | Molecule | inhibition of RSV F/G/SH pseudovirus entry
1 | COc1ccccc1Nc1nc(-c2sc(NC(C)=O)nc2C)cs1 [JNJ0966] | No inhibition
2 | Doxycycline hyclate | No inhibition
